Data set [1] addresses T1, uronate dehydrogenase from Pseudomonas (GenBank EU377538) (Pseudomonas syringae pv. tomato, UniProt Q888H1).
T1 construct: The open reading frame was released by digestion with NcoI and SpeI; made in house; host or cells: Saccharomyces cerevisiae CEN.PK (crude cell extract)
The data set can be described thus: Enzyme activity of uronate dehydrogenase from Pseudomonas expressed in S. cerevisiae. The class given is biochemical, Pseudomonas syringae pv. tomato str. DC3000. To be noted: yeast extract, with NAD, tested as in Example 2. How it is done: (§1) The S. cerevisiae strain resulting from the Example 1 was then disintegrated by vortexing with glass beads and the yeast extract analysed for D-galacturonic acid dehydrogenase activity. In a control experiment a similar strain but with an empty plasmid was used. To assay the D-galacturonic acid dehydrogenase activity the crude cell extract was mixed with 0.5 mM NAD and 4 mM D-galacturonic acid in a 50 mM Tris pH 7.5 buffer containing 0.5 mM MgCl2. The activity was 0.12 units per mg of extracted protein. One unit is the activity that forms 1 μmol of product per minute. In the control strain no activity could be detected.
The DNA coding for uronate dehydrogenase was custom-synthesised by GENEART. The codes for the same amino acid as the gene with the GenBank accession number EU377538. The DNA sequence is in the Sequence Listing SEQ ID NO: 19. It codes for the amino acid sequence SEQ ID NO:20.
The open reading frame was released by digestion with NcoI and SpeI. The resulting fragment was then ligated to the NcoI and NheI sites of the pYX212 (R&D Systems) which is a multicopy yeast expression vector with PGK1 promoter and URA3 selection marker. The resulting vector was then transfected to the S. cerevisiae strain CEN.PK as in the Example 1. The enzyme activity was then tested as in Example 2.

The target in data set [2] is T2, D-galacturonic acid dehydrogenase (uronate dehydrogenase, EC 1.1.1.203, uro1) (Agrobacterium fabrum, UniProt Q7CRQ0).
T2 construct: histidine-tag (His6); made in house; host or cells: Saccharomyces cerevisiae CEN.PK; purified on Ni-NTA-agarose
T2 sequence (Q7CRQ0 whole entry, added parts left off): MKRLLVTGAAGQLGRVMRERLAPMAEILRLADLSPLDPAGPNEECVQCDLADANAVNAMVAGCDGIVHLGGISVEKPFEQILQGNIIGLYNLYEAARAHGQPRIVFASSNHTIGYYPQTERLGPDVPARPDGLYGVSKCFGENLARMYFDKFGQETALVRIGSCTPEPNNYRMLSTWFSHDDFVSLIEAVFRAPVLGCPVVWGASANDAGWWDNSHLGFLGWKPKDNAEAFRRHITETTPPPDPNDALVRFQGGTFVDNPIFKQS
The data set can be described thus: Michaelis-Menten characterization of the purified histidine-tagged D-galacturonic acid dehydrogenase (uro1). The class given is biochemical, Agrobacterium tumefaciens. To be noted: for enzyme activity with the substrate: purified histidine-tagged protein. The procedure: as §1
(§2) The D-galacturonic acid dehydrogenase with a histidine-tag at the N-terminal end was produced in a similar manner as in the Example 1, except that the histidine-tag was introduced by PCR. To introduce the histidine tag the following primers were used 5′-[…]-3′ (SEQ ID NO:5) in sense direction and 5′-[…]-3′ (SEQ ID NO:6) in anti-sense.
(§3) After the expression of the histidine-tagged protein in S. cerevisiae as described in the Example 1 the activity was measured as described in the Example 2. […] The histidine-tagged D-galacturonic acid dehydrogenase was then purified using a Ni-NTA-agarose (Qiagen) according to the instructions of the manufacturer. The purified enzyme gave a single band in an SDS PAGE.
(§4) The purified protein was then used to estimate the Michaelis-Menten constants.

Data set [3] relates to O=C[C@H](O)[C@@H](O)[C@H](O)[C@H](O)C(=O)O. Described as above. The class given is biochemical, Agrobacterium tumefaciens. As to conditions: other: purified histidine-tagged enzyme; Michaelis-Menten constant of the substrate/cofactor; pH 7.5. How it is done: as §1, §2, §3, §4
Data set [4] deals with O=C[C@H](O)[C@@H](O)[C@@H](O)[C@H](O)C(=O)O. Described as above. The class given is biochemical, Agrobacterium tumefaciens. To be noted: other: purified histidine-tagged enzyme; Michaelis-Menten constant of the substrate/cofactor; pH 7.5. How it is done:
as §1, §2, §3, §4

T1 sequence (Q888H1 whole entry): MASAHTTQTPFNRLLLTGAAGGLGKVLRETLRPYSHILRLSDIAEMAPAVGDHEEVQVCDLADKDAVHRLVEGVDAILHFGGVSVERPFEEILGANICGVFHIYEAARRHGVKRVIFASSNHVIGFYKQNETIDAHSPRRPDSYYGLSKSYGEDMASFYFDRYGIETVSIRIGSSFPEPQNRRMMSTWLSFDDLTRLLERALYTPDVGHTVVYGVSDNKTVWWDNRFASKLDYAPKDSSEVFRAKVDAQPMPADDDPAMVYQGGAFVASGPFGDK

Regarding `O=C[C@H](O)[C@@H](O)[C@@H](O)[C@H](O)C(=O)O` [D-galacturonic acid], the “enzyme activity with the substrate” value was “showed activity” in data set [1] and “active” in data set [2].
On to `O=C[C@H](O)[C@@H](O)[C@H](O)[C@H](O)C(=O)O` [GlcUA, D-glucuronic acid], for which the “enzyme activity with the substrate” value in data set [1] is recorded as “showed activity”; in data set [2], “active”.
On to `NC(=O)c1ccc[n+]([C@@H]2O[C@H](COP(=O)([O-])OP(=O)(O)OC[C@H]3O[C@@H](n4cnc5c(N)ncnc54)[C@H](O)[C@@H]3O)[C@@H](O)[C@H]2O)c1` [NAD], for which the Km – broadly, the substrate concentration at which the rate is half of its maximum – in data set [2] (purified histidine-tagged enzyme, Michaelis-Menten constant of the substrate/cofactor) was determined as 900 µM. For the same compound, the Vmax in data set [2] (purified histidine-tagged enzyme, one unit forms 1 μmol of product per minute) was 145 units per mg of protein.
“D-galacturonic acid dehydrogenase (uronate dehydrogenase, EC 1.1.1.203, uro1) (Agrobacterium fabrum str. C58)”: in data set [3], the Km was found to be 1100 µM and the Vmax was 221 units per mg of protein. Besides, in data set [4], the Km was found to be 500 µM and the Vmax is on record as 124 units per mg of protein.

The record behind these values is patent US8895273B2, “Conversion of hexuronic acid to hexaric acid” (Teknologian Tutkimuskeskus VTT, priority 2008, dated 2014).
